Three compounds from patent publication US20260365677A1, “NEW CONTRAST AGENTS FOR USE IN DIAGNOSTIC IMAGING” (Bayer Aktiengesellschaft, priority 2022, published 2026) can be followed below.

Series [1] in a line: Exploratory water solubility in 10 mM Tris-HCl buffer, pH 7.4. The format is physicochemical. To be noted: aqueous buffer (10 mM Tris-HCl), 20 °C. The protocol:
The exploratory water solubility of the compounds is determined at room temperature (20 °C) in 0.5 mL buffer solution (10 mM Tris-HCl, pH 7.4) in the microcentrifuge tubes (Eppendorf, 2.0 mL safe-lock caps). The solid compounds were added stepwise to the buffer solution. More substance is added once all the suspended material is dissolved until an equilibrium between undissolved and dissolved substance is reached. The suspension was mixed using a shaker (Heidolph Reax 2000) and treated 5 min in an ultrasound bath (Bandelin, Sonorex Super RK255H). The Gadolinium concentration of the test substance in the clear solution is measured by ICP-MS.

The nature of series [2]: Relaxivity measurements at 1.41 T in water and human plasma. The format is physicochemical. Particulars: 37 °C, normalized to Gd. The protocol: Relaxivity measurements at 1.41 T were performed using a MiniSpec mq60 spectrometer (Bruker Analytik, Karlsruhe, Germany) operating at a resonance frequency of 60 MHz and a temperature of 37 °C. The T1 relaxation times were determined using the standard inversion recovery (IR) method with a fixed relaxation delay of at least 5×T1. The variable inversion time (TI) was calculated automatically by the standard software of the MiniSpec mq60 (8 steps). The T2 measurements were performed by using a Carr-Purcell-Meiboom-Gill (CPMG) pulse sequence, applying a relaxation delay of at least 5×T1.
Each relaxivity measurement was performed using three different Gd concentrations (3 concentrations between 0.05 and 2 mM). The T1 and T2 relaxation times of the example compounds 1 to 10 were measured in different media for example in water and human plasma. Human plasma preparation: For each experiment fresh blood was taken from a volunteer using 10 mL citrate-tubes (Sarstedt S-Monovette 02.1067.001, 10 mL, Citrate). The 10 mL citrate-tubes were carefully inverted 10 times to mix blood and anticoagulant and centrifuged for 15 min at 1811 g at RT (Eppendorf, Centrifuge 5810R).
The relaxivities ri (where i=1, 2) were calculated based on the measured relaxation rates R, in water and plasma:
where Ri(0) represent the relaxation rate of the respective solvent and CGd the concentration of the compound normalized to the Gadolinium. The Gadolinium concentrations of the investigated solutions were verified by Inductively Coupled Plasma Mass Spectrometry (ICP-MS Agilent 7500a, Waldbronn, Germany).

For the next series, the target named is T1, OATP1B1 (Homo sapiens, UniProt Q9Y6L6).
T1 construct: expressed in transfected cells
T1 sequence (Q9Y6L6 1-691): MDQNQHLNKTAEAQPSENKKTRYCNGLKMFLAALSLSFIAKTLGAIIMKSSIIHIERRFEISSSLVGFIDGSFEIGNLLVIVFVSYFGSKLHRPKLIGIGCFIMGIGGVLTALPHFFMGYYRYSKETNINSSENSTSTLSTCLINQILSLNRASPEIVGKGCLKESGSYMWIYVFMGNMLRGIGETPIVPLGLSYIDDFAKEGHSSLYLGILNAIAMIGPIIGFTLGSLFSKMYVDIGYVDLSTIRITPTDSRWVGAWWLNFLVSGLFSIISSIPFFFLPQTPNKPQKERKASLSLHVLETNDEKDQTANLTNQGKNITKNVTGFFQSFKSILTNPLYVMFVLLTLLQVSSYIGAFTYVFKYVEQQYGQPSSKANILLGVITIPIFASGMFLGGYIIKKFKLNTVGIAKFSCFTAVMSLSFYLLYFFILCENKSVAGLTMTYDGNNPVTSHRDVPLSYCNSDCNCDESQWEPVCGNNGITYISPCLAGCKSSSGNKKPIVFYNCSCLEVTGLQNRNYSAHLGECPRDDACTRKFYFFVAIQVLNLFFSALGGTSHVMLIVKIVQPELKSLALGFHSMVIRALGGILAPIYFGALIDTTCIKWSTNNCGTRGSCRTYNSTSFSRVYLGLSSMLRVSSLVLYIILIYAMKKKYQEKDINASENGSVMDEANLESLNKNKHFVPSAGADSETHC
The series can be described thus: Uptake into stable transfected OATP1B1 HEK 293 cells. The format is cell-based. To be noted: 100 μM, 40 min, relative to RC1 (Gd-EOB-DTPA). As to the method:
Human stable transfected OATP1 B1 human embryonic kidney 293 cells (OATP1 B1 HEK 293, SLCO1B1, Entrez Gene ID: 10599) were used (Leonhardt M et al. Drug Metab Dispos. 2010 July; 38(7):1024-8). The following culture medium was used: 500 mL DMEM (Dulbecco's Modified Eagle Medium—high Glucose, D6429), 50 mL FCS (fetal bovine serum, Fa. Sigma, F7524), 5.8 mL G418 (Geneticin, Fa. Gibco 10131-027) and 5 mL Pen-Strep. (Penicillin-Streptomycin, Fa. Gibco, Ref 15140-122). Cryopreserved cells were shortly thawed in water bath and diluted in 10 mL warm culture medium (37 °C). After medium change the cells were grown for 3d in a 25 cm^2 cell culture flask. After 3 to 5d the cells were transferred into 75 cm^2 flasks. For the splitting the cells were incubated with 1.5 mL trypsin (Trypsin-EDTA (1×) 0.05%, Ref 25300-054 100 ml, Fa. Gibco) for 3-5 min in the incubator (37 °C, 5% CO2 and 95% oxygen). After centrifugation and washing with medium the cells were counted (50 μL cell suspension and 50 μL trypan blue (Trypan Blue Solution, 93595-50 ml, Fa. Fluka). Cells were cultured (1×10^5 cells/well) in poly-D-lysine coated 24-well plates (Fa. Corning, Ref: 354414) in 1.5 mL medium per well. After 48 h in the incubator the medium was changed and 1.5 mL/well sodium butyrate containing medium were added (40 mL culture medium plus 400 μL Na-Butyrate, Fa. Sigma Aldrich B5887-5G, 250 mg in 2.27 mL MilliQ water). After 24 h in the incubator the medium was vacuumed off and 1.5 mL transport buffer was added and incubated for 10 min. The transport buffer contains the following ingredients: 500 mL HBSS (Hank's balanced salt solution, Hyclone, SH30268.01), 5 mL HEPES buffer (4-(2-hydroxyethyl)-1-piperazine-ethanesulfonic acid, Gibco 15630-056) and 3.9 mL glucose (Sigma, G8270-100, 90 g/200 mL MilliQ water). All test items were prepared in transport buffer at a final concentration of 100 μM from stock solutions (180 to 500 mM concentration). The OATP1B1 HEK 293 cells were incubated with test solutions (test item in transport buffer 500 μL) for 40 min on a thermoshaker without shaking (PHMP, Fa. Grant Bio). Triplicates were performed for each test item. After incubation the cells were washed with 2 mL of cold PBS (+) buffer (Dulbeccos PBS+, Fa. Gibco). […] As a reference standard Gd-EOB-DTPA (gadoxetate) is used in the same well plate. The OATP1B1 HEK 293 uptake of the test compound is calculated relative to gadoxetate (resulting in the unit % of RC1).

Series [3] can be described thus: No-observed-adverse-effect level (NOAEL) in mice. To be noted: intravenous bolus injection.

As to `CCOCCOc1ccc(C[C@H]2CN(CC(=O)[O-])CCN(CC(=O)[O-])CCN(CC(=O)O)CCN2CC(=O)[O-])cc1.[Gd+3]` [Example 4, Gadolinium-2,2′,2″-{(2S)-10-(carboxymethyl)-2-[4-(2-ethoxyethoxy)benzyl]-1,4,7,10-tetraazacyclododecane-1,4,7-triyl}triacetate], the Solubility in series [1] was more than 738 mM. In series [2], the r1 human plasma was 6.6 L/mmol/s and the r1 water worked out at 4.8 L/mmol/s. At OATP1B1, the “Uptake into OATP1B1-HEK 293 cells” value is 65 % of RC1. In series [3], this compound yielded an NOAEL of 2.50 mmol Gd/kg bw.

As to `CCOc1ccc(CC2CN(CC(=O)[O-])CCN(CC(=O)[O-])CCN(CC(=O)O)CCN2CC(=O)[O-])cc1.[Gd+3]` (centres unmarked) [Example 7, Gadolinium-2,2′,2″-[10-(carboxymethyl)-2-(4-ethoxybenzyl)-1,4,7,10-tetraazacyclododecane-1,4,7-triyl]triacetate], the Solubility in series [1] was more than 403 mM. In series [2], this compound returned a r1 human plasma of 6.2 L/mmol/s and a r1 water of 4.5 L/mmol/s. The “Uptake into OATP1B1-HEK 293 cells” value on OATP1B1 is listed as 103 % of RC1. The same compound came in with an NOAEL in series [3] of 1.50 mmol Gd/kg bw.

Compound `CCOc1ccc(C[C@H]2CN(CC(=O)[O-])CCN(CC(=O)[O-])CCN(CC(=O)O)CCN2CC(=O)[O-])cc1.[Gd+3]` (single isomer, unassigned; stereoisomer 2) [Example 11] gave a Solubility in series [1] of more than 146 mM. In series [2], this compound came in with a r1 human plasma of 6.2 L/mmol/s and a r1 water of 4.4 L/mmol/s. The “Uptake into OATP1B1-HEK 293 cells” value on OATP1B1 was 96 % of RC1.
